Results taken from patent publication US20100217003A1, “1,2,3,4-TETRAHYDROISOQUINOLINE DERIVATIVES HAVING EFFECTS OF PREVENTING AND TREATING DEGENERATIVE AND INFLAMMATORY DISEASES” (priority 2006, published 2010).

Columns and labels:
[1] = system: TNF-α mRNA; assay: Expression of TNF-α genes in LPS-stimulated BV-2 cells (RT-PCR); type: cell-based, mouse
Method: RT-PCR for GTPCH, iNOS, TNF-α, IL-1β and COX-2
5 ? each of total RNA samples isolated from BV-2 cells were subjected to reverse-transcription (RT), and then polymerase chain reaction (PCR) for 30 cycles under the conditions of 94° C. for 30 seconds, 60° C. for 40 seconds and 72° C. for one minute. Primers used in the PCR were as follows: iNOS (forward, ATGTCCGAAG-CAAACATCAC; reverse, TAATGTC CAGGAAGTAGGTG), TNF-α (forward, CA-[…] reverse, CAGAGCAATGACTC-CAAAGTAGACCT), IL-1β (forward, […]; reverse, CAGGACAGGTAT AGATTCTTTCCTTT), COX-2 (forward, […]; reverse, […]), GTPCH (forward, GGATACCAGGAGACCAT CTCA; reverse, TAGCATGGTGC-TAGTGACAGT). RT-PCR for B2M was simultaneously performed as internal control. The PCR products were subjected to electrophoresis in a 1.5% agarose gel, thereby confirming the presence of a desired size of single band.
The assay was performed to determine whether EHMTIQ (11a) affects TNF-α production in an activated microglial cell. LPS-stimulated BV-2 cell samples were treated with various concentrations of EHMTIQ (11a) and the expression of TNF-α genes was estimated by RT-PCR. The results are illustrated in FIG. 3.

[2] = system: mouse liver cell; assay: Toxicity to mouse liver cell; type: in vivo; settings: FIG. 16

CCC(=O)N1CCc2cc(OC)c(O)cc2C1 [EHMTIQ (11a), 2-ethylcarbonyl-7-hydroxy-6-methoxy-1,2,3,4-tetrahydroisoquinoline]
mRNA level of TNF-α ([1]; 2.5 (unit as image)): decreased the mRNA level to a statistically significant level
mRNA level of TNF-α compared to the control only treated with LPS ([1]; 5 (unit as image)): 74±1%
mRNA level of TNF-α compared to the control only treated with LPS ([1]; 100 (unit as image)): 36±1%
toxicity to a mouse liver cell [2]: non-toxicity
